This assay deals with HIV-1 RNase H (Human immunodeficiency virus type 1 group M subtype B, UniProt P04585). The assay can be described thus: RNase H FRET assay, HIV-1 RNase H. The assay is classed as biochemical. As to conditions: IC50, HIV-1 RNase H, in vitro.

One may read the IC50 as the midpoint of a concentration-inhibition curve. Low readings indicate greater potency in that assay, high ones weaker potency in that assay. `O=C(OC[C@H]1O[C@@H](Oc2ccc(O)cc2)[C@H](OC(=O)c2cc(O)c(O)c(O)c2)[C@@H](O)[C@@H]1O)c1ccc(O)cc1` [hyemaloside B (2), hyemaloside B]: the IC50 was more than 18.3 µM.
